Patent publication US20090137625A1, “Novel Enantiomers and Their Use as Monoamine Neurotransmitter Re-Uptake Inhibitors” (priority 2005, published 2009)
Where a name gives a salt, the structure may show the parent alone. Read-outs that look alike come from different tables or passages of the source.

Tests used:
[1] = target: T1, 5-HT-uptake (reuptake of serotonine in synaptosomes) (Rattus norvegicus, UniProt P31652); assay: Inhibition of serotonine (5-HT) reuptake in synaptosomes; type: biochemical
T1 construct: in synaptosomes as described in WO 97/16451; from tissue

[2] = target: T2, DA-uptake (reuptake of dopamine in synaptosomes) (Rattus norvegicus, UniProt P23977); assay: Inhibition of dopamine (DA) reuptake in synaptosomes; type: biochemical
T2 construct: in synaptosomes as described in WO 97/16451; from tissue

[3] = target: T3, NA-uptake (reuptake of noradrenaline in synaptosomes) (Rattus norvegicus, UniProt Q9WTR4); assay: Inhibition of noradrenaline (NA) reuptake in synaptosomes; type: biochemical
T3 construct: in synaptosomes as described in WO 97/16451; from tissue

[4] = synaptosomes, 3H-5-HT, read-out: 5-HT-uptake IC50
[5] = synaptosomes, 3H-DA, read-out: DA-uptake IC50
[6] = synaptosomes, 3H-NA, read-out: NA-uptake IC50

T3 sequence (Q9WTR4 1-597): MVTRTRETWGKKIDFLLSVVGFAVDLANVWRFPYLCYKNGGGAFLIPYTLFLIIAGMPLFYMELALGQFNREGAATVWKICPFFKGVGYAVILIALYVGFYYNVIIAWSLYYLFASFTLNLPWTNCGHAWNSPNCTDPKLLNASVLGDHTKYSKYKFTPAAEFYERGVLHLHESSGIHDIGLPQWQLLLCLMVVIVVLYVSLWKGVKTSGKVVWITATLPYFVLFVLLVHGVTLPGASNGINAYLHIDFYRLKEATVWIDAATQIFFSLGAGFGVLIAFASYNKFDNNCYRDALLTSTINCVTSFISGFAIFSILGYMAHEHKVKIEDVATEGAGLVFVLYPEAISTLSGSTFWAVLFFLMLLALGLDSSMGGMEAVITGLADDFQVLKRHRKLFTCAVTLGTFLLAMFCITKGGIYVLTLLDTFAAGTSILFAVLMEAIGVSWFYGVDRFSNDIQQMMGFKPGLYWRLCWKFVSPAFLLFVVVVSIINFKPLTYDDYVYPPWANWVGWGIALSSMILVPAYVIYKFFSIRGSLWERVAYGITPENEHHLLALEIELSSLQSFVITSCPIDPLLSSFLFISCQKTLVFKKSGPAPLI
T1 sequence (P31652 whole entry): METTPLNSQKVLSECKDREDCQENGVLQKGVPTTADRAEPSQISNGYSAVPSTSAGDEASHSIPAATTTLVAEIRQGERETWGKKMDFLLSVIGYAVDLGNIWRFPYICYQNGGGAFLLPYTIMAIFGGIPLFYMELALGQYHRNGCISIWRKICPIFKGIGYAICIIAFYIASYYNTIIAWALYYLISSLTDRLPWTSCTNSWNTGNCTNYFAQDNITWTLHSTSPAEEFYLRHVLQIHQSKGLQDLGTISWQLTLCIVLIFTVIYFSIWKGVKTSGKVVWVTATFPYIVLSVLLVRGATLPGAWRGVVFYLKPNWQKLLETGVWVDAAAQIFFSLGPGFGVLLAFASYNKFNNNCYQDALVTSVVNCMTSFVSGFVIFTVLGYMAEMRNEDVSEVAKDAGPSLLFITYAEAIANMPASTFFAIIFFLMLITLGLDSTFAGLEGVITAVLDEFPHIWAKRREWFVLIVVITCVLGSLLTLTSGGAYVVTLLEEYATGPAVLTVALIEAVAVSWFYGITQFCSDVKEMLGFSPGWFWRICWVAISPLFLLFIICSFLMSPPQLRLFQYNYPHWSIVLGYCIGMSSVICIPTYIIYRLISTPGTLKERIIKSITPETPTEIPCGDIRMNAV
T2 sequence (P23977 whole entry): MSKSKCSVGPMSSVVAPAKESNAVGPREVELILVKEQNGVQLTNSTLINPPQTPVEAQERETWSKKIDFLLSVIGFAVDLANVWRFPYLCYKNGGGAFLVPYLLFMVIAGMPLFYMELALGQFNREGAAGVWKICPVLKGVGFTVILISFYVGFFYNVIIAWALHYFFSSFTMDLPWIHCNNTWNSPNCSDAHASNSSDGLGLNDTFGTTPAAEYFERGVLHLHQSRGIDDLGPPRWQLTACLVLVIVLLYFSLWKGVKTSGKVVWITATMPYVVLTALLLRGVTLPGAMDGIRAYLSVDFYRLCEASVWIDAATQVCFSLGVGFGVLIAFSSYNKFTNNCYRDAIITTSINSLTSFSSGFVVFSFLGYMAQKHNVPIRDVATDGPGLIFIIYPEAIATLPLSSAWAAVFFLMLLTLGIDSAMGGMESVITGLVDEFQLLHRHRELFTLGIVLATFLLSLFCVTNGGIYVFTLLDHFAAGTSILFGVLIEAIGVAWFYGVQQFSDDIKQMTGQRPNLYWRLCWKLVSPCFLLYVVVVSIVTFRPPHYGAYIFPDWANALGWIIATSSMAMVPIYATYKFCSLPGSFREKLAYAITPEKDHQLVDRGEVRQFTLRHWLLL

SMILES | melting point [°C] | IC50 [1, 4] [nM] | IC50 [2, 5] [nM] | IC50 [3, 6] [nM] | further results
C1=C(c2ccc3ccccc3c2)CC2CCC1N2 (single isomer, unassigned; (+)) (as salt: tartaric acid salt) [1st compound of method D, (+)-3-Naphthalen-2-yl-8-aza-bicyclo[3.2.1]oct-2-ene] | 183 to 189 | – | – | – | –
Clc1ccc(C2=CC3CCC(C2)N3)cc1 (single isomer, unassigned; (+)) [1st compound of method A, (+)-3-(4-Chlorophenyl)-8-H-8-aza-bicyclo[3.2.1]oct-2-ene] | – | 10 | 260 | 28 | –
C1=C(c2ccc3ccccc3c2)CC2CCC1N2 (single isomer, unassigned; (+)) [1st compound of method D, (+)-3-Naphthalen-2-yl-8-aza-bicyclo[3.2.1]oct-2-ene] | – | – | – | – | IC50 [1]: 0.34 nM; IC50 [2]: 58 nM; IC50 [3]: 13 nM
CN1C2C=C(c3ccc4ccccc4c3)CC1CC2 (single isomer, unassigned; (-)) (as salt: hydrochloric acid salt) [1st compound of method E, (−)-8-Methyl-3-(naphthalen-2-yl)-8-aza-bicyclo[3.2.1]oct-2-ene] | 265 | – | – | – | –
CN1C2C=C(c3ccc4ccccc4c3)CC1CC2 (single isomer, unassigned; (-)) [1st compound of method E, (−)-8-Methyl-3-(naphthalen-2-yl)-8-aza-bicyclo[3.2.1]oct-2-ene] | – | 0.23 | 34 | 18 | –
